# Measured values: patent US12403195B2, “Sensitizing cells to proton radiation” (Humanetics Corporation, priority 2017, dated 2025)
# Where two headings read alike, the source gives them in different places.
# Assays:
# [1] = mice; compared to formulations containing non-micronized genistein; cited from earlier work
# [2] = canines; compared to formulations containing non-micronized genistein; cited from earlier work
# [3] = system: MRC5 normal human lung fibroblasts; test: Clonogenic cell survival after radiation, MRC5 cells; format: cell-based; conditions: for Genistein (D0): 5 μM nanoparticulate genistein 24 hours before radiation; for DMF (Dose Modifying Factor): 5 μM nanoparticulate genistein vs vehicle
# From the text: (§1) In the experiments described herein, a R10.5M5 double scattered proton beam (a proton beam with a maximum range of 10.5 cm where the SOBP comprises the final 5 cm) was utilized with precise positioning of culture dishes at specific points at the entrance, middle, and end of the SOBP. For this beam, the “low LET” was at 2 cm depth, corresponding to about 4 keV/μM, and the high LET was at 10 cm depth, corresponding to about 30 keV/μM. As used herein, the term “low LET” refers to about one to about ten (e.g., about one to three, two to four, three to five, four to six, five to seven, six to eight, seven to nine, or eight to ten) keV/μM unrestricted LET as determined from tables of proton stopping power in liquid water, available from the National Institute of Standards and Technology (stopping power and range tables for protons; “PSTAR”). The term “high-LET” refers to about 20 to 40 (e.g., 20 to 25, 25 to 30, 30 to 35, or 35 to 40) keV/μM, again as determined from PSTAR unrestricted LET tables.
# (§2) Studies were conducted to determine whether a nanoparticulate genistein formulation affects cellular radiosensitivity to protons with increasing LET. Normal and cancer cell lines were exposed to low, intermediate, or high LET proton radiation. These experiments used the H1299 and H460 NSCLC cell lines, which are relevant to lung cancer research during medical radiation exposure as well as nonmedical or accidental radiation exposure. These cell lines were derived from human cancer patients and have well-known radiobiologic properties, with H1299 being relatively less radiosensitive. Both lines harbor Ras pathway activating mutations (H460, KRAS; H1299, NRAS). MRC5 human lung fibroblasts also were used as representative normal cells. Each cell line was obtained from the American Type Culture Collection (ATCC) and tested for mycoplasma regularly. Clonogenic cell survival studies were performed as described elsewhere (Cengel et al., Neoplasia 9(4):341-348, 2007). Briefly, cells were plated 24 hours prior to radiation at about 50% confluence. […] Cells were radμated using either 250 KVp x-rays or protons with lower vs. higher LET. […]
# (§3) Relative radiosensitivity was numerically compared using a standard variable, D0 (the dose of radiation needed to reduce the surviving fraction by a factor of 1/e), which was determined from the positive solution to the quadratic equation of the form: βD^2+αD−1=0, where α and β are determined from the LQ survival curve fit as above. The Dose Modifying Factor (DMF) was determined by the quotient: […]
# [4] = humans; compared to formulations containing non-micronized genistein; cited from earlier work
# [5] = system: H460 human non-small cell lung cancer (NSCLC) cells; test: Clonogenic cell survival after radiation, H460 cells; format: cell-based; conditions: for Genistein (D0): 5 μM nanoparticulate genistein 24 hours before radiation; for DMF (Dose Modifying Factor): 5 μM nanoparticulate genistein vs vehicle, radiosensitization defined as DMF>1.1
# From the text: as §1, §2, §3
# H1299 human NSCLC cells = test: Clonogenic cell survival after radiation, H1299 cells; format: cell-based; conditions: for Genistein (D0): 5 μM nanoparticulate genistein 24 hours before radiation; for DMF (Dose Modifying Factor): 5 μM nanoparticulate genistein vs vehicle
# From the text: as §1
# Studies were conducted to determine whether a nanoparticulate genistein formulation affects cellular radiosensitivity to protons with increasing LET. Normal and cancer cell lines were exposed to low, intermediate, or high LET proton radiation. These experiments used the H1299 and H460 NSCLC cell lines, which are relevant to lung cancer research during medical radiation exposure as well as nonmedical or accidental radiation exposure. These cell lines were derived from human cancer patients and have well-known radiobiologic properties, with H1299 being relatively less radiosensitive. Both lines harbor Ras pathway activating mutations (H460, KRAS; H1299, NRAS). MRC5 human lung fibroblasts also were used as representative normal cells. Each cell line was obtained from the American Type Culture Collection (ATCC) and tested for mycoplasma regularly. Clonogenic cell survival studies were performed as described elsewhere (Cengel et al., Neoplasia 9(4):341-348, 2007). Briefly, cells were plated 24 hours prior to radiation at about 50% confluence. […] Cells were radμated using either 250 KVp x-rays or protons with lower vs. higher LET. To vary the proton LET, cell dishes were placed at a depth of 2 cm (D2, low LET) or 10 cm (D10, high LET) in a R10.5M5 double scattered proton beam—a double scattered proton beam with a maximum range of 10.5 cm and a modulated depth of 5 cm, meaning that the Spread-out Bragg peak (SOBP) began roughly at a depth of 5.5 cm. In this configuration, the D2 and D10 positions corresponded to the entrance and terminal portions of the SOBP, respectively. After exposure to radiation, cells were trypsinized into a single cell suspension and re-plated at various densities without nanoparticulate genistein. About two weeks later (typically 13 to 16 days, depending on colony size), plates were rinsed and stained using crystal violet/ethanol, and colonies were enumerated using an Oxford Optronix automated colony counter with a minimum threshold size of 50 cells to define a colony. […]
# as §3
# [6] = High LET Protons (D10, 10 cm depth)
compound,measurement,setting,value
"O=c1c(-c2ccc(O)cc2)coc2cc(O)cc(O)c12 [Genistein, 5,7-dihydroxy-3-(4-hydroxyphenyl)-chromen-4-one]",oral bioavailability,[1],increased oral bioavailability
same,oral bioavailability,[2],increased oral bioavailability
same,Genistein (D0),[3]; [6],1.26
same,DMF (Dose Modifying Factor),[3]; High LET Protons,1.07
same,Genistein (D0),[3]; X-Rays (250 KVp),1.38
same,DMF (Dose Modifying Factor),[3]; X-Rays,1.01
same,oral bioavailability,[4],increased oral bioavailability
same,Genistein (D0),[5]; [6],2.23
same,DMF (Dose Modifying Factor),[5]; High LET Protons,1.04
same,Genistein (D0),"[5]; X-Rays (250 KVp), D0 = dose reducing surviving fraction by 1/e",2.41
same,DMF (Dose Modifying Factor),[5]; X-Rays,1.07
same,Genistein (D0),H1299 human NSCLC cells; [6],3.03
same,DMF (Dose Modifying Factor),"H1299 human NSCLC cells; High LET Protons, radiosensitization defined as DMF>1.1",1.35
same,Genistein (D0),H1299 human NSCLC cells; X-Rays (250 KVp),4.28
same,DMF (Dose Modifying Factor),"H1299 human NSCLC cells; X-Rays, radiosensitization defined as DMF>1.1",0.97
same,DMF (Dose Modifying Factor),"H1299 human NSCLC cells; lower LET protons (D2, 2 cm depth)",1.09
